# Data: patent publication US7385103B2, “Animal model, cells, and treatment for malignant melanoma” (Rutgers, the State University, priority 2004, dated 2008)
# B1: siRNA: siRNA specific for Grm1 nucleic acid, templates SEQ ID NO:3 (top strand) and SEQ ID NO:4 (bottom strand) (nucleic acid)
# sense: GATCCCGTGGACGGAGATGTCATCATTTCAAGAGAATGATGACATCTCCGTCCATTTTTTGGAAA
# antisense: GCTTTTCCAAAAAATGGACGGAGATGTCATCATTCTCTTGAAATGATGACATCTCCGTCCACGG
# modifications: expressed or natural sequence; the letters are possibly those of the target site
# What was measured:
# [1] = tested on: Grm1-mediated ERK1/2 activation; experiment: ERK1/2 phosphorylation in melanoma cells, western blot with phospho-ERK1/2 antibodies; format: cell-based, mouse; details: for phosphorylation of ERK1/2: 10^−5 M
# Method: To examine whether ERK1/2 were activated after Grm1 activation, cells were treated for the indicated times with the agonist Quisqualate. After treatment, melanoma cells were lysed and the activation of ERK1/2 was determined using antibodies against the phosphorylated forms of ERK1/2.
# Melanoma cells lines were transiently transfected with dominant-negative mutants of Grm1 and expression of the Grm1 mutants was analyzed by western blot analysis.
# Upon IP3 accumulation in cells, calcium is released from the endoplasmic reticulum to the cytoplasm, allowing these ions to act as second messengers that bind to calmodulin and further activate calcium-calmodulin-dependent kinases that are capable of activating mitogen-activated protein kinases (MAPKS) (Soderling (1999) Trends Biochem. Sci. 24(6):232-6). Accordingly, it was determined whether IP3 accumulation in the tumor cell lines disclosed herein, upon Grm1 agonist treatment, would yield intracellular calcium signaling that could affect ERK activation. Depletion of intracellular calcium in these cells was obtained by chelating extracellular calcium with EGTA, which obligates calcium to exit the cell in order to maintain calcium homeostasis.
# PIP2 hydrolysis resulting from Grm1 activation leads to the production of IP3 and DAG. DAG can then activate protein kinase C (PKC). […] Thus, it was determined whether the activation of ERK1/2 by Grm1 is also mediated by PKC in the tumor cell lines disclosed herein.
# To have a minimum amount of the natural ligand (glutamate) present in the growth medium, customized glutamine- and glutamate-free RPMI (RPMI-glu) was used (INVITROGEN™, Carlsbad, Calif.). GLUTAMAX™ (INVITROGEN™), a substitute for glutamate and glutamine, was added to the growth medium at a final concentration of 2 mM, and 10% dialyzed fetal calf serum (INVITROGEN™) was used to supplement the medium. For induction with Grm1 agonist, quisqualate, the cells were grown in RPMI-glu for 3-4 days, plated at 3×10^5 cells per 60-mm plate and serum starved overnight. Several concentrations of quisqualate (10^−4 M to 10^−6 M) and several time points (30 seconds to 120 minutes) were tested for optimal induction. For Grm1 antagonist effects, cells were pretreated for 30 minutes with 10^−5 M of LY367385 before agonist treatment. For PKC inhibitor (RO-31-8220) and calcium chelators (EGTA, BAPTA-AM), cells were pretreated for indicated times before agonist challenge.
# Proteins were extracted using lysis buffer (50 mM Tris-HCl, 150 mM NaCl, 1 mM EDTA, 1% NP-40, 5% glycerol, and 1 mM dithiothreitol, pH 7.4) and protease inhibitors (Complete protease inhibitor cocktail tablets, Roche Molecular Biochemicals, Indianapolis, Ind.). Protein concentrations were measured using the BIO-RAD® DC Protein Assay kit (Bio-Rad, Hercules, Calif.). Equal amounts of lysates were loaded in each lane in 7.5 or 10% polyacrylamide gels (BIO-RAD®, Hercules, Calif.). Proteins were transferred to nitrocellulose membranes (Osmonics, Minnetonka, Minn.). Ponceau Red staining of membranes, after transfer, was performed to verify equivalent amounts of protein between samples. Anti-PERK, ERK, PhosphoPKC isoforms, PKC isoforms antibodies were obtained from Cell Signaling Technology, Inc. (Beverly, Mass.).
# melanoma cell lines = experiment: establishment of melanoma cell lines from amelanotic ear tumors in culture; format: cell-based, mouse
# Method: To further analyze the signaling events mediated by Grm1 in transformed melanocytes, cell lines derived from ear tumor bearing albino mice (Cohen-Salal, et al. (2001) supra) were generated. Tumors from these mice were sectioned in two halves. Protein extraction was performed on one part of the tumors and western immunoblots were done to verify the ectopic expression of Grm1. The other half of the tumor was used to generate homogeneous in vitro melanoma cell lines by gentle selection of melanocyte cells over keratinocytes and fibroblasts through differential geneticin resistance. Initial efforts to directly establish cell lines on standard culture medium supplemented with geneticin were unsuccessful. […] Based on morphology and growth rate, 10^−5 M quisqualate was sufficient to establish growth in culture. […] Ten cells lines namely LL1A, LL1T, Nu1, Nu2, MMB3A, MMB3T, 4045A, 4045T, 4046T, 4046A, were successfully generated from at least six independent mice tumors. Given that these mouse melanoma cell lines behave very similarly in culture, data presented herein is of representative cell lines. […] Cytoplasmic staining for Grm1 has also been reported in other cellular systems (Tadokoro, et al. (1999) Proc. Natl. Acad. Sci. USA 96:13801-13806). To verify the melanocytic origin of these cells, co-staining of the cells was performed with Tyrp-1. […]
molecule,measurement,setting,value
CC(=O)OCOC(=O)CN(CC(=O)OCOC(C)=O)c1ccccc1OCCOc1ccccc1N(CC(=O)OCOC(C)=O)CC(=O)OCOC(C)=O [BAPTA-AM],ERK activation by quisqualate,"[1]; preincubation 30 minutes prior to agonist challenge, in calcium-free media",completely abolished
same,ERK activation by quisqualate,"[1]; preincubation 30 minutes prior to agonist challenge, in the presence of extracellular calcium",dose-dependent decrease in ERK activation
O=C(O)CN(CCOCCOCCN(CC(=O)O)CC(=O)O)CC(=O)O [EGTA],ERK activation by quisqualate,[1]; chelating extracellular calcium to deplete intracellular calcium,time-dependent decrease in ERK activation
Cc1cc(C(=O)O)ccc1[C@H](N)C(=O)O [LY367385],activation of ERK1/2 by quisqualate,[1]; melanoma lines pretreated 30 minutes with antagonist (10^−5 M) before agonist challenge,abrogated
"N[C@@H](Cn1oc(=O)[nH]c1=O)C(=O)O [quisqualate, L-quisqualate]",phosphorylation of ERK1/2,[1]; after 5 minutes of tumor cell stimulation,increase in the phosphorylation of ERK1/2
same,phosphorylation of ERK1/2,[1]; after 15 minutes of stimulation,reduced to background levels
same,quisqualate concentration sufficient to establish growth in culture,melanoma cell lines; based on morphology and growth rate,10^−5 M
same,establishment of melanoma cell lines on addition to culture medium,melanoma cell lines; culture medium supplemented with geneticin,enabled the establishment of melanoma cell lines
B1,ERK activation by Grm1 agonist,"[1]; transfected melanoma cells, compared to cells transfected with an unrelated siRNA sequence",inhibited ERK activation
